# What was measured:
# KB cells [1] = assay: MTS cytotoxicity test procedure with KB cells; assay type: cell-based; settings: Homo sapiens, MTS assay, means of 2 independent experiments
# Text: (§1) Human cancer cell lines, unless otherwise noted, are obtained from the American Type Culture Collection (Rockville, Md.). […]
# (§2) The MTS assay, which is sold in kit form by Promega (Madison, Wis.; CellTiter 96 AQueous Non-Radioactive Cell Proliferation Assay), is based on the conversion by viable cells, but not by dead cells, of the tetrazolium salt, MTS (3-(4,5-dimethylthiazol-2-yl)-5-(3-carboxymethoxyphenyl)-2-(4-sulphophenyl)-2H-tetrazolium, inner salt), into a water-soluble colored formazan which is detected by spectrophotometry. […] For the test procedure, cells are harvested by trypsinization (or, in the case of non-adherent cells, by simple resuspension), washed, counted and distributed to wells of 96-well flat-bottom microtiter plates at 1000 cells per well in 200 μL of medium. […]
# (§3) After three days of culture with test compounds (day 5 overall), the MTS assay is done on all wells of the experimental plates. The absorbance values of the quadruplicate sample wells are averaged and divided by the average of the “time 0” values. […]
# KB-8-5 cells [2] = assay: MTS cytotoxicity test procedure with KB-8-5 cells; assay type: cell-based, human; settings: MTS assay
# Text: as §1, §2, §3
# KB-V1 cells [3] = assay: MTS cytotoxicity test procedure with KB-V1 cells; assay type: cell-based, human; settings: MTS assay
# Text: (§4) Human cancer cell lines, unless otherwise noted, are obtained from the American Type Culture Collection (Rockville, Md.). The following drug-sensitive parental cell lines, and their derived drug-resistant counterparts, are obtained from the originators as listed: (a) S1 (parental line from a subclone of human colon carcinoma line LS174T) and derived S1-M1-3.2 (herein called S1-M1) which expresses the MXR drug transporter protein, are provided by Dr. L. Greenberger, Wyeth Research (Rabindran, S. K., He, H., Singh, M., Brown, E., Collins, K. I., Annable, T., and Greenberger, L. M. Reversal of a novel multidrug resistance mechanism in human colon carcinoma cells by fumitremorgin C. Cancer Res., 58: 5850-5858,1998); (b) parental HL-60 human promyelocytic leukemia line and derived HL-60/ADR, which expresses the MRP1 drug transporter protein, are provided by Dr. M. Center, University of Kansas (McGrath, T., and Center, M. S. Adriamycin resistance in HL60 cells in the absence of detectable P-glycoprotein. Biochem. Biophys. […] J. Biol. Chem., 261: 7762-7770, 1986) via Dr. L. Greenberger, Wyeth Research.
# The MTS assay, which is sold in kit form by Promega (Madison, Wis.; CellTiter 96 AQueous Non-Radioactive Cell Proliferation Assay), is based on the conversion by viable cells, but not by dead cells, of the tetrazolium salt, MTS (3-(4,5-dimethylthiazol-2-yl)-5-(3-carboxymethoxyphenyl)-2-(4-sulphophenyl)-2H-tetrazolium, inner salt), into a water-soluble colored formazan which is detected by spectrophotometry. Compounds are tested at nine concentrations, in order to determine IC50 values. For the test procedure, cells are harvested by trypsinization (or, in the case of non-adherent cells, by simple resuspension), washed, counted and distributed to wells of 96-well flat-bottom microtiter plates at 1000 cells per well in 200 μL of medium. […]
# as §3
# KB cells [4] = assay: SRB cytotoxicity test procedure with KB cells; assay type: cell-based; settings: Homo sapiens, SRB assay, means of 2 independent experiments
# Text: as §1
# The SRB standard cytotoxicity assay is done according to previously reported methods (Discafani, C. M., Carroll, M. L., Floyd Jr., M. B. F., Hollander, I. J., Husain, Z., Johnson, B. D., Kitchen, D., May, M. K., Malo, M. S., Minnick Jr., A. A., Nilakantan, R., Shen, R., Wang Y-F., Wissner, A., Greenberger, L. M. Irreversible inhibition of epidermal growth factor receptor tyrosine kinase with in vivo activity by N-[4-[3-bromophenyl)amino]-6-quinaxolinyl]-2-butynamide (CL-387,785). […] Absorbance is read on a Victor V multi-label plate reader (Perkin Elmer, Gaithersburg, Md.). […]
# KB-8-5 cells [5] = assay: SRB cytotoxicity test procedure with KB-8-5 cells; assay type: cell-based, human; settings: SRB assay
# Text: as §4
# The SRB standard cytotoxicity assay is done according to previously reported methods (Discafani, C. M., Carroll, M. L., Floyd Jr., M. B. F., Hollander, I. J., Husain, Z., Johnson, B. D., Kitchen, D., May, M. K., Malo, M. S., Minnick Jr., A. A., Nilakantan, R., Shen, R., Wang Y-F., Wissner, A., Greenberger, L. M. Irreversible inhibition of epidermal growth factor receptor tyrosine kinase with in vivo activity by N-[4-[3-bromophenyl)amino]-6-quinaxolinyl]-2-butynamide (CL-387,785). Biochem. Pharmacol., 57: 917-925, 1999). Briefly, cells are plated in 100 μL of medium in 96-well flat-bottom microtiter plates in the morning of day 1 and allowed to adhere to the plates for 2-6 hr. Compounds are serially diluted into medium as 2× stocks and 100 μL of these stocks are added to cells in duplicate. Compounds are incubated with cells for 3 days. At the end of the incubation period the sulforhodamine B (SRB) assay, which measures protein content as an assessment of cell survival, is performed as described previously (Skehan, P., Storeng, R., Scudiero, D., Monks, A., McMahon, J., Vistica, D., Warren, J. T., Bokesch, H., Kenney, S., Boyd, M. R. New calorimetric cytotoxicity assay for anticancer-drug screening. J. Natl. Cancer Inst., 82:1107-1112, 1990) with some modifications. Medium is gently decanted from plates and replaced with 200 μL per well of cold serum-free medium containing a final concentration of 10% trichloroacetic acid. The plates are incubated for 1 hr at 40, washed 5 times in cold distilled water, and air-dried overnight. […] Absorbance is read on a Victor V multi-label plate reader (Perkin Elmer, Gaithersburg, Md.). […]
# KB-V1 cells [6] = assay: SRB cytotoxicity test procedure with KB-V1 cells; assay type: cell-based, human; settings: SRB assay; for Ratio VI/KB: IC50 on KB VI cells/IC50 on KB cells
# Text: as §4
# The SRB standard cytotoxicity assay is done according to previously reported methods (Discafani, C. M., Carroll, M. L., Floyd Jr., M. B. F., Hollander, I. J., Husain, Z., Johnson, B. D., Kitchen, D., May, M. K., Malo, M. S., Minnick Jr., A. A., Nilakantan, R., Shen, R., Wang Y-F., Wissner, A., Greenberger, L. M. Irreversible inhibition of epidermal growth factor receptor tyrosine kinase with in vivo activity by N-[4-[3-bromophenyl)amino]-6-quinaxolinyl]-2-butynamide (CL-387,785). Biochem. Pharmacol., 57: 917-925, 1999). Briefly, cells are plated in 100 μL of medium in 96-well flat-bottom microtiter plates in the morning of day 1 and allowed to adhere to the plates for 2-6 hr. Compounds are serially diluted into medium as 2× stocks and 100 μL of these stocks are added to cells in duplicate. Compounds are incubated with cells for 3 days. At the end of the incubation period the sulforhodamine B (SRB) assay, which measures protein content as an assessment of cell survival, is performed as described previously (Skehan, P., Storeng, R., Scudiero, D., Monks, A., McMahon, J., Vistica, D., Warren, J. T., Bokesch, H., Kenney, S., Boyd, M. R. New calorimetric cytotoxicity assay for anticancer-drug screening. J. Natl. Cancer Inst., 82:1107-1112, 1990) with some modifications. Medium is gently decanted from plates and replaced with 200 μL per well of cold serum-free medium containing a final concentration of 10% trichloroacetic acid. The plates are incubated for 1 hr at 40, washed 5 times in cold distilled water, and air-dried overnight. The fixed cells are stained for 10 min with 80 μL per well of 0.04% SRB solution prepared in 1% glacial acetic acid. Staining solution is decanted, plates are washed 5 times in 1% glacial acetic acid, and then air-dried until completely dry. Stained cell product is dissolved in 150 μL per well of 10 mM Trizma Base with shaking for 20 minutes. Absorbance is read on a Victor V multi-label plate reader (Perkin Elmer, Gaithersburg, Md.).
# The KB lines express different amounts of the P-glycoprotein (MDR1) membrane pump which produces resistance to the action of many cytotoxic compounds, including paclitaxel and vincristine. The parental KB line expresses no P-glycoprotein, KB-8-5 expresses moderate levels of the protein, and KB-V1 expresses very high levels.
# [7] = Homo sapiens, KB 8.5 cells, means of 2 independent experiments
# [8] = IC50 on KB 8.5 cells/IC50 on KB cells
# [9] = Homo sapiens, KB-V1, KB VI cells, means of 2 independent experiments
SMILES,IC50 (KB cells [1]),IC50 (KB-8-5 cells [2]; [7]),Ratio 8.5/KB (KB-8-5 cells [2]; [8]),IC50 (KB-V1 cells [3]; [9]),Ratio VI/KB (KB-V1 cells [3]; IC50 on KB VI cells/IC50 on KB cells),IC50 (KB cells [4]),IC50 (KB-8-5 cells [5]; [7]),Ratio 8.5/KB (KB-8-5 cells [5]; [8]),IC50 (KB-V1 cells [6]; [9]),Ratio VI/KB (KB-V1 cells [6]),Ratio VI/KB (KB-V1 cells [6]; listed as paclitaxel)
"CN(C)CCCOc1cc(F)c(-c2c(Cl)nc3nccn3c2C2CCCCCC2)c(F)c1 [Example 6, 3-[4-(7-Chloro-5-cycloheptylimidazo[1,2-a]pyrimidin-6-yl)-3,5-difluorophenoxy]-N,N-dimethylpropan-1-amine]",0.044 µM,0.063 µM,1.4,0.204 µM,4.6,,,,,,
"CC(=O)O[C@H]1C(=O)[C@@]2(C)[C@H]([C@H](OC(=O)c3ccccc3)[C@]3(O)C[C@H](OC(=O)[C@H](O)[C@@H](NC(=O)c4ccccc4)c4ccccc4)C(C)=C1C3(C)C)[C@]1(OC(C)=O)CO[C@@H]1C[C@@H]2O [Paclitaxel, reference compound]",,,,,,0.0022 µM,0.034 µM,16,> 3 µM,>1360,"> 1,360"

# Source: US7285555B2, “6-aryl-7-halo-imidazo[1,2-a]pyrimidines as anticancer agents” (Wyeth Holdings Corporation, priority 2003, dated 2007)
